Measured values reported in ChEMBL document CHEMBL5223100, “Homobivalent, Trivalent, and Covalent PROTACs: Emerging Strategies for Protein Degradation” (J Med Chem, 2022).

Tests used:
MV4-11 = test: Antiproliferative activity against human MV4-11 cells
MCF7 = test: Antitumor activity against human MCF7 cells xenografted in mouse assessed as tumor growth inhibition; type: functional
[1] = target: T1, Tyrosine-protein kinase BTK (Homo sapiens, UniProt Q06187); test: Induction of BTK degradation in human MINO cells; type: cell-based
T1 sequence (Q06187 whole entry): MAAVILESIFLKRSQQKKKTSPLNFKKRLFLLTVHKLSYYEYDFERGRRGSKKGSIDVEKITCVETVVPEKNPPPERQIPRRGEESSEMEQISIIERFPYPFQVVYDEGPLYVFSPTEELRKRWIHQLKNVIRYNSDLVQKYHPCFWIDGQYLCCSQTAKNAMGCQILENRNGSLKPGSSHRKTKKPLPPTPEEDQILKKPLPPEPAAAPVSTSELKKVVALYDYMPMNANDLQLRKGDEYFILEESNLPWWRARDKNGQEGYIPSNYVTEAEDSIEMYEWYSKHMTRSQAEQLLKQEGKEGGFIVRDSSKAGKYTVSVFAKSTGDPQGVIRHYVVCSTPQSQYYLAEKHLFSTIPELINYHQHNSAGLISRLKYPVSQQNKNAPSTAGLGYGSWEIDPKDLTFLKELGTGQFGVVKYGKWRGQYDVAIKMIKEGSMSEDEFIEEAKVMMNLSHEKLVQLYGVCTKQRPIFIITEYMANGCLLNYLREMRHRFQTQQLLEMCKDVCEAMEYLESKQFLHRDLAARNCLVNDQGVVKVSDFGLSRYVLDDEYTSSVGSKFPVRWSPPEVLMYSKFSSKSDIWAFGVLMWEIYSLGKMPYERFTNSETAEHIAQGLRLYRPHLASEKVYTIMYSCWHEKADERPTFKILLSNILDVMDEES

[2] = target: T1, Tyrosine-protein kinase BTK; test: Induction of BTK degradation in human MINO cells assessed as maximum degradation relative to control; type: cell-based
[3] = target: E3 ubiquitin-protein ligase Mdm2 (Homo sapiens, UniProt Q00987); test: Displacement of p53 from human MDM2 by HTRF assay
Chain of E3 ubiquitin-protein ligase Mdm2 (Q00987 whole entry): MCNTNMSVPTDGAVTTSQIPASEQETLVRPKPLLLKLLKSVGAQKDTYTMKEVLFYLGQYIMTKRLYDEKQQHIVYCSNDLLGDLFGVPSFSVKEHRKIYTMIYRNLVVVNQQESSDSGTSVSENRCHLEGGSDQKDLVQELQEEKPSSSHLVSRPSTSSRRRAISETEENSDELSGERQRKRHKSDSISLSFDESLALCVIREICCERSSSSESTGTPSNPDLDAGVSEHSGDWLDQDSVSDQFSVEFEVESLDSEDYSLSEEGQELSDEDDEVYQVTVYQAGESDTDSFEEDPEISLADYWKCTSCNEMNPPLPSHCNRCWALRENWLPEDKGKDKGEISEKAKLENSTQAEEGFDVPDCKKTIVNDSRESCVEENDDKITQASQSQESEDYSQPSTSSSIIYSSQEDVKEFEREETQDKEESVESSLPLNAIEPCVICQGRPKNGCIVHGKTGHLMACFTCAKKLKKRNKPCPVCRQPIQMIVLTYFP

A549 [4] = test: Antiproliferative activity against human A549 cells; type: functional, cell-based
HCT-116 [5] = test: Antiproliferative activity against human HCT-116 cells; type: functional, cell-based
HCT-116 [6] = test: Antiproliferative activity against p53 knockout human HCT-116 cells; type: functional, cell-based
[7] = Half life in mouse; type: ADME, organism-based; details: in vivo
[8] = AUC in mouse; type: ADME, organism-based; details: in vivo
A549 [9] = test: Antitumor activity against human A549 cells xenografted model assessed as tumor growth inhibition at 30 mg/kg; type: functional; details: read-out: TGI
[10] = target: Androgen receptor (Homo sapiens) (UniProt P10275); test: Induction of AR degradation in human 22Rv1 cells assessed as maximum degradation at 10 uM after 8 hrs relative to control; type: cell-based
Chain of Androgen receptor (Homo sapiens) (P10275 whole entry): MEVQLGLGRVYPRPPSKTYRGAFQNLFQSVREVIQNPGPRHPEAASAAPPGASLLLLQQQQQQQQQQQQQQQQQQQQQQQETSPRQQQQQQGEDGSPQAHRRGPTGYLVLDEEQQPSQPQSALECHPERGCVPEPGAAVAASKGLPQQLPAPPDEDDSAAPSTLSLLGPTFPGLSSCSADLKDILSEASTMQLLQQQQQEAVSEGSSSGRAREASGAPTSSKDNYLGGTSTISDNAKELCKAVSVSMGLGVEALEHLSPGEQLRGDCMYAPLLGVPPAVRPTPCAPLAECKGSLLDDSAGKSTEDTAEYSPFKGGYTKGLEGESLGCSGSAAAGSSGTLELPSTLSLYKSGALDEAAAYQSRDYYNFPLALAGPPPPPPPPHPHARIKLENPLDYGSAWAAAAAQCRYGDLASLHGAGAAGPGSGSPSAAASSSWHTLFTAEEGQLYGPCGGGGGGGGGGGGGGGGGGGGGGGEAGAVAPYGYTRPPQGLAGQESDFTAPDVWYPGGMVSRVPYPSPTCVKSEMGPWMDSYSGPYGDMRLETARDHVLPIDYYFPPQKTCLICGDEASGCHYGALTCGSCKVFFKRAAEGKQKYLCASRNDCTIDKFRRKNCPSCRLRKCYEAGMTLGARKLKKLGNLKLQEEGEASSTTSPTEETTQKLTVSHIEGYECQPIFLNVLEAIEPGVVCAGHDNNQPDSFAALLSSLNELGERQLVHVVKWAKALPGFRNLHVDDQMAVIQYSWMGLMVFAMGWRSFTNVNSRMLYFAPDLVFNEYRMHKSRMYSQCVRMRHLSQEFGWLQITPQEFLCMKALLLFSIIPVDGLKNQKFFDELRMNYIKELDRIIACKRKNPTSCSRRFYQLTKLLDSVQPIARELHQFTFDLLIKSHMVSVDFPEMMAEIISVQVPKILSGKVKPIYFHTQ

Huh-7 = test: Antiproliferative activity against human Huh-7 cells; type: functional, cell-based
HepG2 = test: Antiproliferative activity against human HepG2 cells; type: functional, cell-based
HT-29 = test: Antiproliferative activity against human HT-29 cells; type: functional, cell-based
[11] = target: Dual specificity mitogen-activated protein kinase kinase; MEK1/2 (Homo sapiens) (UniProt P36507+Q02750); test: Induction of MEK degradation in human HT-29 cells assessed as maximum degradation at 100 nM after 12 hrs relative to control; type: cell-based
Chain of Dual specificity mitogen-activated protein kinase kinase; MEK1/2 (Homo sapiens) (P36507 whole entry, looked up): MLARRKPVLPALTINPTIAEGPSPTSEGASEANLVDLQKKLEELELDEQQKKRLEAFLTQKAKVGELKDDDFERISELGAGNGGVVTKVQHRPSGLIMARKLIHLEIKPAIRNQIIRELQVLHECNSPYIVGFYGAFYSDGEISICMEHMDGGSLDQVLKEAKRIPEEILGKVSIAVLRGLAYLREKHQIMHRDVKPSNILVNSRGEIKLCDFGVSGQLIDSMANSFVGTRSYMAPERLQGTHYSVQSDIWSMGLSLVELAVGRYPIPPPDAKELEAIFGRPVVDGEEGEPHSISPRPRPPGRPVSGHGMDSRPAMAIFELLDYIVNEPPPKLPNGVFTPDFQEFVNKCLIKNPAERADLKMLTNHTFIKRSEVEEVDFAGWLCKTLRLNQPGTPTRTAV
Chain of Dual specificity mitogen-activated protein kinase kinase; MEK1/2 (Homo sapiens) (Q02750 whole entry, looked up): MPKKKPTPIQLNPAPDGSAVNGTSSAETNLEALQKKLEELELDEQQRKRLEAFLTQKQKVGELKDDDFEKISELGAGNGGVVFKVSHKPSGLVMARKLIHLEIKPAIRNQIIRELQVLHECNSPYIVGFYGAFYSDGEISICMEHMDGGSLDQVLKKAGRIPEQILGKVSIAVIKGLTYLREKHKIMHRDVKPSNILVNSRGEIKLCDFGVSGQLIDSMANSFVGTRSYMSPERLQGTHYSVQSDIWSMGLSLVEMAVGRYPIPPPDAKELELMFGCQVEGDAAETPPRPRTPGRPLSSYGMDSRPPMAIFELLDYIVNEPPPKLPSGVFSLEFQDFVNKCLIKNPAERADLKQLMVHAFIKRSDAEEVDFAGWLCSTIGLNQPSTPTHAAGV

Protein cereblon = Protein cereblon (Homo sapiens, UniProt Q96SW2); test: Induction of CRBN degradation in human MM1.S cells assessed as maximum degradation at 100 nM incubated for 24 hrs relative to control; type: cell-based
Chain of Protein cereblon (Q96SW2 whole entry): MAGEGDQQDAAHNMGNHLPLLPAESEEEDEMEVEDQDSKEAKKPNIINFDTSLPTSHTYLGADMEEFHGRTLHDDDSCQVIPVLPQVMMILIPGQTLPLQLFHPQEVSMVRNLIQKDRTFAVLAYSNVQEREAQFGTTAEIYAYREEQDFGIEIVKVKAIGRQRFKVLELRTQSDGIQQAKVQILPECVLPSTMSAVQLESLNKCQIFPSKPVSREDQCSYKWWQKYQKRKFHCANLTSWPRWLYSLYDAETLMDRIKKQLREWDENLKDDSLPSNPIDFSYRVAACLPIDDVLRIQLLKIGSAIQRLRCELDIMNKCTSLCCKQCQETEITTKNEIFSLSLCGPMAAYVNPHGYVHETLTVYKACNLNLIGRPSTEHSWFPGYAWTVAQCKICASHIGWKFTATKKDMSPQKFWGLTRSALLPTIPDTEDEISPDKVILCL

SU-DHL-1 = test: Antiproliferative activity against human SU-DHL-1 cells; type: functional, cell-based
[12] = target: ALK tyrosine kinase receptor (Homo sapiens) (UniProt Q9UM73); test: Induction of ALK degradation in human SU-DHL-1 cells assessed as maximum degradation at 300 nM after 12 hrs relative to control; type: cell-based
[13] = target: T1, Tyrosine-protein kinase BTK; test: Induction of BTK degradation in human K562 cells; type: cell-based
[14] = target: T1, Tyrosine-protein kinase BTK; test: Induction of BTK degradation in human K562 cells assessed as maximum degradation relative to control; type: cell-based
[15] = target: T2, Tyrosine-protein kinase Blk (Homo sapiens, UniProt P51451); test: Induction of BLK degradation in human K562 cells; type: cell-based
Target sequence in this assay (P51451 whole entry): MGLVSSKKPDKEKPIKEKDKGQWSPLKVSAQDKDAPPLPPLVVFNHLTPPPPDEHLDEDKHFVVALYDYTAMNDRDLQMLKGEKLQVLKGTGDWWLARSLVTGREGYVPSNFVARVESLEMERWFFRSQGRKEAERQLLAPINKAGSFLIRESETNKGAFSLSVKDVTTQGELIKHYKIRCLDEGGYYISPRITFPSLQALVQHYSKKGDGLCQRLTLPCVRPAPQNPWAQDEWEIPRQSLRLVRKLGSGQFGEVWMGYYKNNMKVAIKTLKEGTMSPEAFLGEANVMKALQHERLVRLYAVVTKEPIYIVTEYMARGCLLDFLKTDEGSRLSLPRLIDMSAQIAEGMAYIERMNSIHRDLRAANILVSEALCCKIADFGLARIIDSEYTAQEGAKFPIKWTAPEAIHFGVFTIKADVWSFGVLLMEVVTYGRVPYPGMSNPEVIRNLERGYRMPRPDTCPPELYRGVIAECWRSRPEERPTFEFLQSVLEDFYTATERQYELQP

[16] = target: T2, Tyrosine-protein kinase Blk; test: Induction of BLK degradation in human K562 cells assessed as maximum degradation relative to control; type: cell-based
Target sequence in this assay (P51451 2-505 limits assumed): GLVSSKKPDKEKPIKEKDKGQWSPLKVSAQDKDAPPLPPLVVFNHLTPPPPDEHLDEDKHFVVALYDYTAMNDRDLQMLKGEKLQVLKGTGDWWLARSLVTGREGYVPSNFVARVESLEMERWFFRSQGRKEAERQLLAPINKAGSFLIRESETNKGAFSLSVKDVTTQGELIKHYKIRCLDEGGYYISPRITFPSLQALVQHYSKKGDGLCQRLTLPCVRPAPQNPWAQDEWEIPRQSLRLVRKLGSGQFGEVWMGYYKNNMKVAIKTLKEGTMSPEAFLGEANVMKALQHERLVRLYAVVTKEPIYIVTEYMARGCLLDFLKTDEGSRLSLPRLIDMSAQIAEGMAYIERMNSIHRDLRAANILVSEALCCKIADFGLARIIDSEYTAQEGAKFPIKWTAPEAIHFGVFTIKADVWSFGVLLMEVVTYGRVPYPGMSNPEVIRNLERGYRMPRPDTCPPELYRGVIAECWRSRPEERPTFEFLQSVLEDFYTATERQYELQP

Cc1sc2c(c1C)C(c1ccc(Cl)cc1)=N[C@@H](CC(=O)NCCOCCOCCOCC(C)(COCCOCCOCCNC(=O)C[C@@H]1N=C(c3ccc(Cl)cc3)c3c(sc(C)c3C)-n3c(C)nnc31)COC(=O)NCCNc1cccc3c1C(=O)N(C1CCC(=O)NC1=O)C3=O)c1nnc(C)n1-2 (stereo partly drawn)
IC50 (MV4-11): 94.6 nM

Cc1ncsc1-c1ccc(CNC(=O)[C@@H]2C[C@@H](O)CN2C(=O)[C@@H](NC(=O)COCCOCCOCCNC(=O)C[C@@H]2N=C(c3ccc(Cl)cc3)c3c(sc(C)c3C)-n3c(C)nnc32)C(C)(C)C)cc1
TGI (MCF7): 59.8%

CC(C)(/C=C(\C#N)C(=O)N1CCC[C@@H](n2nc(-c3ccc(Oc4ccccc4)cc3)c3c(N)ncnc32)C1)CCCOCCOCCOCCOCCOc1cccc2c1C(=O)N(C1CCC(=O)NC1=O)C2=O (stereo partly drawn)
DC50 [1]: 6 nM | Emax [2]: 85%

CCOc1cc(C(C)(C)C)ccc1C1=N[C@@H](c2ccc(Cl)cc2)[C@@H](c2ccc(Cl)cc2)N1C(=O)N1CCN(CC(=O)NCCOCCOCCOCCNC(=O)CN2CCN(C(=O)N3C(c4ccc(C(C)(C)C)cc4OCC)=N[C@H](c4ccc(Cl)cc4)[C@@H]3c3ccc(Cl)cc3)CC2=O)C(=O)C1
Ki [3]: 90 nM | IC50 (A549 [4]): 580 nM | IC50 (HCT-116 [5]): 1100 nM | IC50 (HCT-116 [6]): 21000 nM | half-life [7]: 9.6 h | AUC [8]: 42800 ng·h/mL | inhibition in vivo at 30 mg/kg (A549 [9]): 52.4%

Nc1ncnc2c1c(-c1ccc(Oc3ccccc3)cc1)nn2[C@@H]1CCCN(C(=O)CCCCCCOCCOCCOCCOCCOc2cccc3c2C(=O)N(C2CCC(=O)NC2=O)C3=O)C1 (stereo partly drawn)
DC50 [1]: 2.2 nM | Emax [2]: 97%

CC1(C)[C@H](NC(=O)c2ccc(OCC(=O)NCCCOCCOCCOCCCN(C(=O)CCl)C(C(=O)NCc3ccccc3)c3ccc(Cl)c(Cl)c3)cc2)C(C)(C)[C@H]1Oc1ccc(C#N)c(Cl)c1 (stereo partly drawn)
Emax [10]: 90%

COc1ccc(C2=N[C@@H](c3ccc(Cl)cc3)[C@@H](c3ccc(Cl)cc3)N2C(=O)N2CCNC(=O)C2)c(OC(C)C)c1 [NUTLIN-3]
IC50 (A549 [4]): 7900 nM | IC50 (HCT-116 [5]): 5000 nM

C[C@H]1[C@H](C)CC[C@]2(C(=O)NCCOCCOCCOCCNc3cccc4c3C(=O)N(C3CCC(=O)NC3=O)C4=O)CC[C@]3(C)C(=CC[C@@H]4[C@@]5(C)CC[C@H](O)C(C)(C)[C@@H]5CC[C@]43C)[C@H]12 (stereo partly drawn)
IC50 (A549 [4]): 230 nM | IC50 (Huh-7): 390 nM | IC50 (HepG2): 380 nM

Cc1ncsc1-c1ccc([C@H](C)NC(=O)[C@@H]2C[C@@H](OC(=O)CCCCn3cc(CNC(=O)CC[C@H](NC(=O)c4ccc(NCc5cnc6nc(N)[nH]c(=O)c6n5)cc4)C(=O)O)nn3)CN2C(=O)[C@@H](NC(=O)CCCCCCCCCCNCCCONC(=O)c2ccc(F)c(F)c2Nc2ccc(I)cc2F)C(C)(C)C)cc1
IC50 (HT-29): 246 nM | Emax [11]: 90%

Cc1ncsc1-c1ccc(CNC(=O)[C@@H]2C[C@@H](O)CN2C(=O)[C@@H](NC(=O)CCCCOCCCCCOCCCCCCNc2cccc3c2C(=O)N(C2CCC(=O)NC2=O)C3=O)C(C)(C)C)cc1 (stereo partly drawn)
Emax (Protein cereblon): > 90%

Cc1cc(Nc2ncc(Cl)c(Nc3ccccc3S(=O)(=O)C(C)C)n2)c(OC(C)C)cc1C1CCN(CCCCC(=O)N[C@H](C(=O)N2C[C@H](OC(=O)CCCCn3cc(CNC(=O)CC[C@H](NC(=O)c4ccc(NCc5cnc6nc(N)[nH]c(=O)c6n5)cc4)C(=O)O)nn3)C[C@H]2C(=O)N[C@@H](C)c2ccc(-c3scnc3C)cc2)C(C)(C)C)CC1
IC50 (SU-DHL-1): 200 nM | Emax [12]: 100%

C=CC(=O)N1C[C@@H](n2nc(-c3ccc(Oc4ccccc4)cc3)c3c(N)ncnc32)C[C@H]1C(=O)OCCOCCOCC(=O)N[C@H](C(=O)N1C[C@H](O)C[C@H]1C(=O)NCc1ccc(-c2scnc2C)cc1)C(C)(C)C
DC50 [13]: 136 nM | Emax [14]: 88% | DC50 [15]: 220 nM | Emax [16]: 75%
